What was measured:
HiBit-BRM fusion protein = biological target: T1, HiBit-BRM fusion protein (Homo sapiens, UniProt P51531); experiment: HiBiT-BRM cell-based degradation assay (Nano-Glo HiBiT Lytic Detection, 24 h); conditions: HeLa cells expressing HiBiT-BRM; for DC50: read-out: BRM HiBit Degradation IC50; for BRM HiBit Degradation Maximum measured: top dose 30 μM
T1 construct: expressed in transfected cells
How it was run: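 HeLa cells stably expressing HiBiT-BRM were dosed with compounds (10-point 3-fold dilutions, 30 μM final top dose, duplicate) for 24 h. HiBiT signal was read by lytic LgBiT complementation luminescence. Percent degradation was normalised to DMSO (high control) and 2 μM of a reference BRM/BRG1 degrader (low control).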

[1] = biological target: T2, HiBit-BRG1 fusion protein (Homo sapiens, UniProt P51532); experiment: HiBiT-BRG1 cell-based degradation assay (Nano-Glo HiBiT Lytic Detection, 24 h); conditions: HeLa cells expressing HiBit-BRG1 and LgBit; for DC50: read-out: BRG1 HiBit Degradation IC50; for Dmax: HeLa, top dose 30 μM, read-out: BRG1 HiBit Degradation Maximum measured
T2 construct: expressed in transfected cells
T2 sequence (P51532 whole entry, the tested form may be a part): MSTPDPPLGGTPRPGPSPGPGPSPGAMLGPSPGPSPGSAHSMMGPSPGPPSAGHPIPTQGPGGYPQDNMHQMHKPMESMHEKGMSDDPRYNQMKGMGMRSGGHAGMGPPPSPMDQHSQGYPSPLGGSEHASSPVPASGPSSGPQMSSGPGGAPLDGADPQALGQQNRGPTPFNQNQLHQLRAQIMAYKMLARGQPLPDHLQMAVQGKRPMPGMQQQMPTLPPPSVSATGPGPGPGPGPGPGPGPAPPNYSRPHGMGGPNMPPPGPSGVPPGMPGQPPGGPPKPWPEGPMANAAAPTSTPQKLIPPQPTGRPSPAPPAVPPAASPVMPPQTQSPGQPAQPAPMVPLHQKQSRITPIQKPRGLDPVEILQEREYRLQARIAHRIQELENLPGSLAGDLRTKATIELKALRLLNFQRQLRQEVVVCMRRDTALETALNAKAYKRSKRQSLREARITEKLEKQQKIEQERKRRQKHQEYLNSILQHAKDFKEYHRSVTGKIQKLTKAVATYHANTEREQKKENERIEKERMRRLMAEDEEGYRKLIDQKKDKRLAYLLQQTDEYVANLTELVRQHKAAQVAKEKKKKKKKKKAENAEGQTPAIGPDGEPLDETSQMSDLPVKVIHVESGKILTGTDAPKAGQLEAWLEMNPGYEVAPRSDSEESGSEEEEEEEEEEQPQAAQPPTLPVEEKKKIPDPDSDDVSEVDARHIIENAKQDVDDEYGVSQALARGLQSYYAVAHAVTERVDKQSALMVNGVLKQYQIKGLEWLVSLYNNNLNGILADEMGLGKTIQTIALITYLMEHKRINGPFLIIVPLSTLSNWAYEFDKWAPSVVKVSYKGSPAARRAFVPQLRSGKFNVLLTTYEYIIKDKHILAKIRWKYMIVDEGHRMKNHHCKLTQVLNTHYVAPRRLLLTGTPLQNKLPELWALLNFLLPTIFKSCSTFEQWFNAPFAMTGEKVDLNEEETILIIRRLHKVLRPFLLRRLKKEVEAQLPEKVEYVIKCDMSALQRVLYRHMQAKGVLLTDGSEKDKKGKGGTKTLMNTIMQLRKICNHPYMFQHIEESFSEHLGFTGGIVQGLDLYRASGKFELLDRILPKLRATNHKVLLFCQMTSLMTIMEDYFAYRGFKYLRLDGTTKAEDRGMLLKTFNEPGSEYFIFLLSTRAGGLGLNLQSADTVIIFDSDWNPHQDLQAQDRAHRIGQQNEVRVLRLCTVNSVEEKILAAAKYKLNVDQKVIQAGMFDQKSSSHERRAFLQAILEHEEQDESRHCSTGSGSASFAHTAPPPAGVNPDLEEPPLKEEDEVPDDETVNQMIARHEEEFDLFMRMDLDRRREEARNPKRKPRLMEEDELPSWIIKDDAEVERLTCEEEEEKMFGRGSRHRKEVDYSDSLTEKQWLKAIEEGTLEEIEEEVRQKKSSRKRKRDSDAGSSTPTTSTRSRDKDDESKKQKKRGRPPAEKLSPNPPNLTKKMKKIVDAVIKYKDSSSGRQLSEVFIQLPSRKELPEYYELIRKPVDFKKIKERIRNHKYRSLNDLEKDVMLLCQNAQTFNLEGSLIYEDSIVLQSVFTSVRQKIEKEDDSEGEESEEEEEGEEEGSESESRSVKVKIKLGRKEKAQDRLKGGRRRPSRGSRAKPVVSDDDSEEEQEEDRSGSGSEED
How it was run: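 Stable HeLa line expressing HiBiT-BRG1 and LgBiT, seeded at 5000 cells/well; luminescence read after lytic Nano-Glo HiBiT reagent and 10 min shaking at RT. % degradation normalised between DMSO (high control) and 2 μM reference BRM/BRG1 degrader (low control).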

T1 sequence (P51531 whole entry, the tested form may be a part): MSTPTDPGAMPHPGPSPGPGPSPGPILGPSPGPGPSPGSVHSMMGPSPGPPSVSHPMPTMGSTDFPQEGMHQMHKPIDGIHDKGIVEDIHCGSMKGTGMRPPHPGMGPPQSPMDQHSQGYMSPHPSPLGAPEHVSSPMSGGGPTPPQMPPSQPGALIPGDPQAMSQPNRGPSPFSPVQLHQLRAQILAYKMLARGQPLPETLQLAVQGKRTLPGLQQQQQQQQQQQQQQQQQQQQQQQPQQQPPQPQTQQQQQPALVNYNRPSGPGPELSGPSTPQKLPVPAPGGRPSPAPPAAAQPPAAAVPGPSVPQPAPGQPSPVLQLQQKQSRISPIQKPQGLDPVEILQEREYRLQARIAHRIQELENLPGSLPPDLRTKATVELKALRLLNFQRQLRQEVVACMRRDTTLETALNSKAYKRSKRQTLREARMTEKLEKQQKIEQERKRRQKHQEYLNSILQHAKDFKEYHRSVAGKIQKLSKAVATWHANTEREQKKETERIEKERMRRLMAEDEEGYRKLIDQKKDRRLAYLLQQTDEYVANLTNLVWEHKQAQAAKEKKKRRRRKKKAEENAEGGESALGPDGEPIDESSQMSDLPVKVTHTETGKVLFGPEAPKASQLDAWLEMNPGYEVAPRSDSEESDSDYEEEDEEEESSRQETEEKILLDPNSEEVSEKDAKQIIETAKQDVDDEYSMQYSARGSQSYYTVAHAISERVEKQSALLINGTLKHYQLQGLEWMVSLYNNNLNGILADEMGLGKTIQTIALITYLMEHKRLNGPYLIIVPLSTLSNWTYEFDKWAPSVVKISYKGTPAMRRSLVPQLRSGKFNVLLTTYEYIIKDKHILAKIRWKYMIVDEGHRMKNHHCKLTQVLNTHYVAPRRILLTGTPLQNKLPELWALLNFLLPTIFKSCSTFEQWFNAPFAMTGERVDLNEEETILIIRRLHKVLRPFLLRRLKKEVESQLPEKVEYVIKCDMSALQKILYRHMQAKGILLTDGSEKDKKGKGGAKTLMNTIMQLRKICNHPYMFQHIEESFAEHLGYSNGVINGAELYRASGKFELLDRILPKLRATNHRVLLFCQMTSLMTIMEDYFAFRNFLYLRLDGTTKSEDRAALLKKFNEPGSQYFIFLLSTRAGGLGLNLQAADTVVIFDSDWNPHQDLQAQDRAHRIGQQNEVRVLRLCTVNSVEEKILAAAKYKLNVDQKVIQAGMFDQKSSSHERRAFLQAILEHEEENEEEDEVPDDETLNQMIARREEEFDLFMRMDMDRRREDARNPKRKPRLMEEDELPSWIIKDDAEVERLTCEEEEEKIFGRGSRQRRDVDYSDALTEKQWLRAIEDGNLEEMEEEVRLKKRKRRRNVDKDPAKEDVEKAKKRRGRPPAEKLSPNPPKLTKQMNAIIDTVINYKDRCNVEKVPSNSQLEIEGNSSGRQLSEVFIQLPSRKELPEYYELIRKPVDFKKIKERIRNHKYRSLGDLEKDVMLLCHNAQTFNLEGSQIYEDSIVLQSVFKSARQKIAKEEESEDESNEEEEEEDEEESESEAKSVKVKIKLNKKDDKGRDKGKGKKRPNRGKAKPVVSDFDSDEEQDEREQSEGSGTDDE

Structure (SMILES) | DC50 (HiBit-BRM fusion protein) [µM] | BRM HiBit Degradation Maximum measured (HiBit-BRM fusion protein) | DC50 [1] [µM] | Dmax [1] [%]
CS(=O)(=O)n1ccc(C(=O)NCC(=O)Nc2nc(-c3cccc(-c4ccnc(C5(C(=O)NCCNc6ccc7c(c6)C(=O)N(C6CCC(=O)NC6=O)C7)CC5)c4)c3)cs2)c1 (centres unmarked) [Compound 168, N-(2-((4-(3-(2-(1-((2-((2-(2,6-dioxopiperidin-3-yl)-3-oxoisoindolin-5-yl)amino)ethyl)carbamoyl)cyclopropyl)pyridin-4-yl)phenyl)thiazol-2-yl)amino)-2-oxoethyl)-1-(methylsulfonyl)-1H-pyrrole-3-carboxamide] | < 0.1 | A (‘A’ = Maximum degradation >75%) | < 0.1 | > 75
CS(=O)(=O)n1ccc(C(=O)N[C@@H](CCOCCCC(=O)N2CC(CCOc3cccc4c3C(=O)N(C3CCC(=O)NC3=O)C4=O)C2)C(=O)Nc2nc(-c3ccccc3)cs2)c1 (stereo partly drawn) [Compound 224, (2S)-4-[4-[3-(2-[[2-(2,6-dioxopiperidin-3-yl)-1,3-dioxoisoindol-4-yl]oxy]ethyl)azetidin-1-yl]-4-oxobutoxy]-2-[(1-methanesulfonylpyrrol-3-yl)formamido]-N-(4-phenyl-1,3-thiazol-2-yl)butanamide] | > 10 | C (‘C’ = Maximum degradation <50%) | > 10 | < 50
CS(=O)(=O)n1ccc(C(=O)N[C@@H](CCOCCCC(=O)N2CCN(CCOc3ccc4c(c3)C(=O)N(C3CCC(=O)NC3=O)C4=O)CC2)C(=O)Nc2nc(-c3ccccc3)cs2)c1 (stereo partly drawn) [Compound 219, (2S)-4-[4-[4-(2-[[2-(2,6-dioxopiperidin-3-yl)-1,3-dioxoisoindol-5-yl]oxy]ethyl)piperazin-1-yl]-4-oxobutoxy]-2-[(1-methanesulfonylpyrrol-3-yl)formamido]-N-(4-phenyl-1,3-thiazol-2-yl)butanamide] | > 10 | C (‘C’ = Maximum degradation <50%) | > 10 | < 50
Cc1c(C(=O)NCC(=O)Nc2nc(-c3cccc(-c4ccnc(N(C)CC(=O)N5CCC(C6CCN(C(=O)COc7cccc8c7C(=O)N(C7CCC(=O)NC7=O)C8=O)CC6)CC5)c4)c3)cs2)cn(S(C)(=O)=O)c1C (centres unmarked) [Compound 123, N-[2-[[4-[3-[2-[[2-[4-[1-[2-[2-(2,6-dioxo-3-piperidyl)-1,3-dioxo-isoindolin-4-yl]oxyacetyl]-4-piperidyl]-1-piperidyl]-2-oxo-ethyl]-methyl-amino]-4-pyridyl]phenyl]thiazol-2-yl]amino]-2-oxo-ethyl]-4,5-dimethyl-1-methylsulfonyl-pyrrole-3-carboxamide] | > 10 | C (‘C’ = Maximum degradation <50%) | > 10 | < 50
CS(=O)(=O)n1ccc(C(=O)N[C@@H](COCc2ccc(CNC(=O)CCCOc3cccc4c3C(=O)N(C3CCC(=O)NC3=O)C4=O)cc2)C(=O)Nc2nc(-c3ccccc3)cs2)c1 (stereo partly drawn) [Compound 178, 4-[[2-(2,6-dioxopiperidin-3-yl)-1,3-dioxoisoindol-4-yl]oxy]-N-[(4-[[(2S)-2-[(1-methanesulfonylpyrrol-3-yl)formamido]-2-[(4-phenyl-1,3-thiazol-2-yl)carbamoyl]ethoxy]methyl]phenyl)methyl]butanamide] | > 10 | C (‘C’ = Maximum degradation <50%) | > 10 | < 50
CS(=O)(=O)n1ccc(C(=O)N[C@@H](CCCCNC(=O)CCOCCOCCOc2ccc3c(c2)C(=O)N(C2CCC(=O)NC2=O)C3=O)C(=O)Nc2nc(-c3ccccc3)cs2)c1 (stereo partly drawn) [Compound 291, (2S)-6-[3-[2-(2-[[2-(2,6-dioxopiperidin-3-yl)-1,3-dioxoisoindol-5-yl]oxy]ethoxy)ethoxy]propanamido]-2-[(1-methanesulfonylpyrrol-3-yl)formamido]-N-(4-phenyl-1,3-thiazol-2-yl)hexanamide] | > 10 | C (‘C’ = Maximum degradation <50%) | > 10 | < 50
CC(C)(C(=O)N1CCC(C2CCN(C(=O)COc3cccc4c3C(=O)N(C3CCC(=O)NC3=O)C4=O)CC2)CC1)n1ccc(-c2cccc(-c3csc(NC(=O)CNC(=O)c4ccn(S(C)(=O)=O)c4)n3)c2)n1 (centres unmarked) [Compound 10, N-[2-[[4-[3-[1-[2-[4-[1-[2-[2-(2,6-dioxo-3-piperidyl)-1,3-dioxo-isoindolin-4-yl]oxyacetyl]-4-piperidyl]-1-piperidyl]-1,1-dimethyl-2-oxo-ethyl]pyrazol-3-yl]phenyl]thiazol-2-yl]amino]-2-oxo-ethyl]-1-methylsulfonylpyrrole-3-carboxamide] | > 10 | C (‘C’ = Maximum degradation <50%) | > 10 | < 50
CS(=O)(=O)n1ccc(C(=O)NCC(=O)Nc2nc(-c3cccc(-c4cccc(CNC(=O)CCOCCOCCNc5ccc6c(c5)C(=O)N(C5CCC(=O)NC5=O)C6=O)c4)c3)cs2)c1 (centres unmarked) [Compound 45, N-(2-((4-(3′-((3-(2-(2-((2-(2,6-dioxopiperidin-3-yl)-1,3-dioxoisoindolin-5-yl)amino)ethoxy)ethoxy)propanamido)-methyl)-[1,1′-biphenyl]-3-yl)thiazol-2-yl)amino)-2-oxoethyl)-1-(methylsulfonyl)-1H-pyrrole-3-carboxamide] | > 10 | C (‘C’ = Maximum degradation <50%) | > 10 | < 50
CS(=O)(=O)n1ccc(C(=O)N[C@@H](CCOCCCC(=O)N2CCN(CCCC#Cc3ccc4c(c3)C(=O)N(C3CCC(=O)NC3=O)C4=O)CC2)C(=O)Nc2nc(-c3ccccc3)cs2)c1 (stereo partly drawn) [Compound 263, (2S)-4-[4-(4-[5-[2-(2,6-dioxopiperidin-3-yl)-1,3-dioxoisoindol-5-yl]pent-4-yn-1-yl]piperazin-1-yl)-4-oxobutoxy]-2-[(1-methanesulfonylpyrrol-3-yl)formamido]-N-(4-phenyl-1,3-thiazol-2-yl)butanamide; formic acid] | > 10 | C (‘C’ = Maximum degradation <50%) | > 10 | < 50
CS(=O)(=O)n1ccc(C(=O)NCC(=O)Nc2nc(-c3cccc(-c4ccnc(C5(C(=O)NCCCC#Cc6cccc7c6C(=O)N(C6CCC(=O)NC6=O)C7=O)CC5)c4)c3)cs2)c1 (centres unmarked) [Compound 152, N-[5-[2-(2,6-dioxopiperidin-3-yl)-1,3-dioxoisoindol-4-yl]pent-4-yn-1-yl]-1-[4-[3-(2-[2-[(1-methanesulfonylpyrrol-3-yl)formamido]acetamido]-1,3-thiazol-4-yl)phenyl]pyridin-2-yl]cyclopropane-1-carboxamide] | > 10 | C (‘C’ = Maximum degradation <50%) | > 10 | < 50
CS(=O)(=O)n1ccc(C(=O)NCC(=O)Nc2nc(-c3cccc(-c4ccnc(C5(C(=O)N6CCN(CC7CCN(c8ccc9c(c8)C(=O)N(C8CCC(=O)NC8=O)C9=O)CC7)CC6)CC5)c4)c3)cs2)c1 (centres unmarked) [Compound 134, N-[4-[3-(2-[1-[4-([1-[2-(2,6-dioxopiperidin-3-yl)-1,3-dioxoisoindol-5-yl]piperidin-4-yl]methyl)piperazine-1-carbonyl]cyclopropyl]pyridin-4-yl)phenyl]-1,3-thiazol-2-yl]-2-[(1-methanesulfonylpyrrol-3-yl)formamido]acetamide] | 0.1 to 1 | A (‘A’ = Maximum degradation >75%) | < 0.1 | > 75
